Test results reported in patent US6737383B1, “Herbicidal oxadiazolidines” (priority 1999, dated 2004).

Legend:
wild oat [1] = assay: Test B pre/postemergence wild oat; format: in vivo, Avena fatua
Summary of the method: (§1)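 Response is a visual 0-to-10 score relative to untreated plants, where 0 means no effect and 10 means complete control, taken twelve to sixteen days after application. Treatments went onto soil at planting and onto foliage of 1- to 4-leaf plants, using a surfactant-containing non-phytotoxic solvent.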

green foxtail = assay: Test E green foxtail; format: in vivo, Setaria viridis; conditions: Preemergence; for Green foxtail plant response rating (0 to 100 scale): Rate 250 g/ha
winter wheat [2] = assay: Test E winter wheat; format: in vivo, Triticum aestivum; conditions: Postemergence; for Plant response rating, Wheat (winter): 0 to 100 scale
Summary of the method: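 Compound formulated with surfactant in a non-phytotoxic solvent (postemergence: young 1- to 4-leaf plants); held in greenhouse approx. 21–28 days; visual assessment against untreated plants.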

winter barley = assay: Test E winter barley; format: in vivo, Hordeum vulgare; conditions: Preemergence; for Barley (winter) plant response rating (0 to 100 scale): Rate 250 g/ha
blackgrass = assay: Test E blackgrass; format: in vivo, Alopecurus myosuroides; conditions: Preemergence; for Blackgrass plant response rating (0 to 100 scale): Rate 250 g/ha
morningglory = assay: Test B pre/postemergence morningglory; format: in vivo, Ipomoea hederacea
Summary of the method: as §1

winter wheat [3] = assay: Test E winter wheat; format: in vivo, Triticum aestivum; conditions: Preemergence; for Wheat (winter) plant response rating (0 to 100 scale): Rate 250 g/ha
pigweed = assay: Test B pre/postemergence pigweed; format: in vivo, Amaranthus retroflexus
Summary of the method: as §1

Italian ryegrass = assay: Test E Italian ryegrass; format: in vivo, Lolium multiflorum; conditions: Preemergence; for I. Ryegrass plant response rating (0 to 100 scale): Rate 250 g/ha; for Plant response rating, I. Ryegrass: 0 to 100 scale where 0 is no effect and 100 is complete control
wild oat [4] = assay: Test E wild oat; format: in vivo, Avena fatua; conditions: Preemergence
[5] = Preemergence, Rate 62 g/ha, scale of 0 to 10 where 0 is no effect and 10 is complete control
[6] = Preemergence, Rate 250 g/ha, scale of 0 to 10 where 0 is no effect and 10 is complete control
[7] = Preemergence, Rate 500 g/ha, scale of 0 to 10 where 0 is no effect and 10 is complete control
[8] = Rate 62 g/ha, Postemergence, scale of 0 to 10 where 0 is no effect and 10 is complete control
[9] = Rate 125 g/ha, Postemergence, scale 0 to 10
[10] = Rate 125 g/ha, Preemergence, scale of 0 to 10 where 0 is no effect and 10 is complete control
[11] = Rate 125 g/ha, 0 to 100 scale (0 no effect, 100 complete control)
[12] = Rate 500 g/ha, 0 to 100 scale where 0 is no effect and 100 is complete control
[13] = Rate 500 g/ha, Postemergence, scale 0 to 10
[14] = Preemergence, Rate 62 g/ha, scale 0 to 10 (0 no effect, 10 complete control)
[15] = Preemergence, Rate 125 g/ha, 0 is no effect, 10 is complete control
[16] = Preemergence, Rate 250 g/ha, scale 0 to 10, 0 is no effect, 10 is complete control
[17] = Preemergence, Rate 500 g/ha, scale 0 to 10 (0 no effect, 10 complete control)
[18] = Rate 250 g/ha, Postemergence, scale 0 to 10, 0 is no effect, 10 is complete control
[19] = Rate 1000 g/ha, 0 to 100 scale where 0 is no effect and 100 is complete control
[20] = Postemergence, Rate 125 g/ha, scale of 0 to 10 where 0 is no effect and 10 is complete control

CC(=O)OCCCCn1c(=O)on(C(=O)N(c2ccc(F)cc2)C(C)C)c1=O [Compound 211]
Wild oats plant response rating (wild oat [1]; [5]): 0 | Wild oats plant response rating (wild oat [1]; [6]): 5 | Plant response rating, Wild oats (wild oat [1]; [7]): 5 | Wild oats plant response rating (wild oat [1]; [8]): 0 | Wild oats plant response rating (wild oat [1]; [9]): 0 | Wild oats plant response rating (wild oat [1]; [10]): 4 | Plant response rating (0 to 10; 0 is no effect, 10 is complete control), Wild oats (wild oat [1]; Rate 250 g/ha, Postemergence): 0 | Plant response rating, Green foxtail (green foxtail; [11]): 0 | Green foxtail plant response rating (0 to 100 scale) (green foxtail): 10 | Plant response rating, Green foxtail (green foxtail; [12]): 20 | Plant response rating, Wheat (winter) (winter wheat [2]; Rate 125 g/ha, 0 is no effect, 100 is complete control): 20 | Plant response rating, Wheat (winter) (winter wheat [2]; Rate 500 g/ha, 0 is no effect, 100 is complete control): 40 | Plant response rating, Barley (winter) (winter barley; [11]): 10 | Barley (winter) plant response rating (0 to 100 scale) (winter barley): 20 | Plant response rating, Barley (winter) (winter barley; [12]): 10 | Plant response rating, Blackgrass (blackgrass; [11]): 0 | Blackgrass plant response rating (0 to 100 scale) (blackgrass): 0 | Plant response rating, Blackgrass (blackgrass; [12]): 50 | Morningglory plant response rating (morningglory; [5]): 0 | Morningglory plant response rating (morningglory; [6]): 0 | Plant response rating, Morningglory (morningglory; [7]): 0 | Morningglory plant response rating (morningglory; [8]): 4 | Morningglory plant response rating (morningglory; [9]): 6 | Morningglory plant response rating (morningglory; [10]): 0 | Plant response rating (0 to 10; 0 is no effect, 10 is complete control), Morningglory (morningglory; Rate 250 g/ha, Postemergence): 6 | Morningglory plant response rating (morningglory; [13]): 6 | Plant response rating, Wheat (winter) (winter wheat [3]; [11]): 50 | Wheat (winter) plant response rating (0 to 100 scale) (winter wheat [3]): 35 | Plant response rating, Wheat (winter) (winter wheat [3]; [12]): 30 | Redroot pigweed plant response rating (pigweed; [5]): 0 | Redroot pigweed plant response rating (pigweed; [6]): 3 | Plant response rating, Redroot pigweed (pigweed; [7]): 7 | Redroot pigweed plant response rating (pigweed; [8]): 2 | Redroot pigweed plant response rating (pigweed; [9]): 4 | Redroot pigweed plant response rating (pigweed; [10]): 0 | Plant response rating (0 to 10; 0 is no effect, 10 is complete control), Redroot pigweed (pigweed; Rate 250 g/ha, Postemergence): 4 | Redroot pigweed plant response rating (pigweed; [13]): 5 | I. Ryegrass plant response rating (0 to 100 scale) (Italian ryegrass): 0 | Plant response rating, I. Ryegrass (Italian ryegrass; Rate 500 g/ha): 10 | Plant response rating, Wild oat (wild oat [4]; [11]): 20 | Plant response rating, Wild oat (wild oat [4]; [12]): 40

Cc1nsc(C)c1-n1c(=O)on(C(=O)N(c2ccc(F)cc2)C(C)C)c1=O [Compound 157]
Wild oats plant response rating (wild oat [1]; [14]): 0 | Wild oats plant response rating (0 to 10 scale) (wild oat [1]; [15]): 0 | Wild oats plant response rating (wild oat [1]; [16]): 0 | Wild oats plant response rating (wild oat [1]; [17]): 0 | Plant response rating, Wild oats (wild oat [1]; [18]): 0 | Wild oats plant response rating (wild oat [1]; [13]): 0 | Green foxtail plant response rating (0 to 100 scale) (green foxtail): 30 | Plant response rating, Green foxtail (green foxtail; [12]): 40 | Plant response rating, Green foxtail (green foxtail; [19]): 50 | Plant response rating, Wheat (winter) (winter wheat [2]; Rate 1000 g/ha, 0 is no effect and 100 is complete control): 40 | Plant response rating, Wheat (winter) (winter wheat [2]; Rate 500 g/ha, 0 no effect, 100 complete control): 30 | Wheat (winter) plant response rating (winter wheat [2]; Rate 250 g/ha, 0 to 100 scale where 0 is no effect and 100 is complete control): 20 | Barley (winter) plant response rating (0 to 100 scale) (winter barley): 0 | Plant response rating, Barley (winter) (winter barley; [12]): 10 | Plant response rating, Barley (winter) (winter barley; [19]): 30 | Blackgrass plant response rating (0 to 100 scale) (blackgrass): 20 | Plant response rating, Blackgrass (blackgrass; [12]): 40 | Plant response rating, Blackgrass (blackgrass; [19]): 50 | Morningglory plant response rating (morningglory; [20]): 1 | Morningglory plant response rating (morningglory; [14]): 0 | Morningglory plant response rating (0 to 10 scale) (morningglory; [15]): 0 | Morningglory plant response rating (morningglory; [16]): 0 | Morningglory plant response rating (morningglory; [17]): 3 | Morningglory plant response rating (morningglory; [8]): 0 | Plant response rating, Morningglory (morningglory; [18]): 1 | Morningglory plant response rating (morningglory; [13]): 1 | Wheat (winter) plant response rating (0 to 100 scale) (winter wheat [3]): 20 | Plant response rating, Wheat (winter) (winter wheat [3]; [12]): 30 | Plant response rating, Wheat (winter) (winter wheat [3]; [19]): 40 | Redroot pigweed plant response rating (pigweed; [20]): 0 | Redroot pigweed plant response rating (pigweed; [14]): 0 | Redroot pigweed plant response rating (0 to 10 scale) (pigweed; [15]): 0 | Redroot pigweed plant response rating (pigweed; [16]): 0 | Redroot pigweed plant response rating (pigweed; [17]): 0 | Redroot pigweed plant response rating (pigweed; [8]): 0 | Plant response rating, Redroot pigweed (pigweed; [18]): 0 | Redroot pigweed plant response rating (pigweed; [13]): 0 | I. Ryegrass plant response rating (0 to 100 scale) (Italian ryegrass): 20 | Plant response rating, I. Ryegrass (Italian ryegrass; Rate 500 g/ha): 30 | Plant response rating, I. Ryegrass (Italian ryegrass; Rate 1000 g/ha): 50 | Wild oat plant response rating (0 to 100 scale) (wild oat [4]; Rate 250 g/ha): 50 | Plant response rating, Wild oat (wild oat [4]; [12]): 30 | Plant response rating, Wild oat (wild oat [4]; [19]): 50
